Experimental data reported in publication doi:10.1101/2021.10.07.463234v2 (biorxiv, 2021).
Structures can show the parent of a compound that is named as a salt.

Target: SARS-CoV-2 Mac1 (Severe acute respiratory syndrome coronavirus 2, UniProt P0DTD1)
Assay: biochemical
Details: for inhibition at 100 µM: read-out: %inhibition; for %inhibition: 100 µM, inhibitor

Compound	inhibition at 100 µM [%]	%inhibition [%]
O=C(O)CCc1nc(-c2ccccc2)c(-c2ccccc2)o1 [Oxaprozin]	11.8	
Cc1ccc(C(=O)N(CCCN)[C@@H](c2nc3cc(Cl)ccc3c(=O)n2Cc2ccccc2)C(C)C)cc1 [Ispinesib (SB-715992)]	0	
NNc1nncc2ccccc12 [Hydralazine HCl]	6.58	
CN(C)[C@@H]1C(O)=C(C(N)=O)C(=O)[C@@]2(O)C(O)=C3C(=O)c4c(O)cccc4[C@@](C)(O)[C@H]3[C@H](O)[C@@H]12 [Oxytetracycline Dihydrate]	0	
Nc1ncnc2c1ncn2[C@@H]1O[C@H](CO)[C@@H](O)[C@H]1O [Adenosine]	0	
CC[C@H](NC(=O)[C@H](C)NC)C(=O)N1C[C@@H](O)C[C@H]1Cc1c(-c2[nH]c3cc(F)ccc3c2C[C@@H]2C[C@H](O)CN2C(=O)[C@H](CC)NC(=O)[C@H](C)NC)[nH]c2cc(F)ccc12 [Birinapant]	3.17	
CC1(C)S[C@@H]2[C@H](NC(=O)[C@H](N)c3ccccc3)C(=O)N2[C@H]1C(=O)OCOC(=O)[C@@H]1N2C(=O)C[C@H]2S(=O)(=O)C1(C)C [Sultamicillin]	8.63	
Cn1c(=O)c2c(ncn2CC2OCCO2)n(C)c1=O [Doxofylline]	1.49	
Cc1cnc(C(=O)O)c[n+]1[O-] [Acipimox]	14	
CCOc1ccc(Cc2cc([C@@H]3O[C@H](SC)[C@@H](O)[C@H](O)[C@H]3O)ccc2Cl)cc1 [Sotagliflozin (LX4211)]	0	
OC[C@@H](O)[C@@H](O)[C@H](O)[C@H](O)CO [D-Mannitol]	0	
CCOc1cc(N)c(Cl)cc1C(=O)NCC1CN(Cc2ccc(F)cc2)CCO1 (stereo not drawn) [Mosapride]	0	
COc1nc2ccc(Br)cc2cc1[C@@H](c1ccccc1)[C@@](O)(CCN(C)C)c1cccc2ccccc12 [Bedaquiline]		4.292
CCCCC(O)c1ccccc1 (stereo not drawn) [Fenipentol]	4.29	
COc1cccc2c1C(=O)c1c(O)c3c(c(O)c1C2=O)CC(O)(C(=O)CO)CC3OC1CC(N)C(O)C(C)O1 (stereo not drawn) [Doxorubicin (Adriamycin) HCl]	18.3	
Nc1nc(F)nc2c1ncn2[C@@H]1O[C@H](CO)[C@@H](O)[C@@H]1O [Fludarabine]	12.7	
CC(C)(C)NC[C@H](O)COc1nsnc1N1CCOCC1 [Timolol Maleate]	11.9	
C[C@H]1CNCCCN1S(=O)(=O)c1cccc2cncc(F)c12 [Ripasudil (K-115) hydrochloride dihydrate]	23.9	
Nc1ccn([C@@H]2O[C@H](CO)[C@@H](O)C2(F)F)c(=O)n1 [Gemcitabine HCl]		0
CCOC(=O)Nc1ccc(NCc2ccc(F)cc2)cc1N [Retigabine 2HCl]		8.664
CCCC(=O)O[C@]1(C(=O)COC(C)=O)CC[C@H]2[C@@H]3C[C@H](F)C4=CC(=O)C=C[C@]4(C)[C@@]3(F)[C@@H](O)C[C@@]21C [Difluprednate]	22.2	
COc1cc(O)c(C(=O)Nc2nc(C(=O)NCCN(C(C)C)C(C)C)cs2)cc1OC [Acotiamide hydrochloride]		0
COC(=O)C1=C(C)NC(C)=C(C(=O)OC(C)(C)CN(C)CCC(c2ccccc2)c2ccccc2)C1c1cccc([N+](=O)[O-])c1 (stereo not drawn) [Lercanidipine hydrochloride]	0	

Compound	inhibition at 100 µM [%]	%inhibition [%]
C[C@H]1COc2c(N3CCN(C)CC3)c(F)cc3c(=O)c(C(=O)O)cn1c23 [Levofloxacin]		22.21
C[C@H](Cc1cc2c(c(C(N)=O)c1)N(CCCO)CC2)NCCOc1ccccc1OCC(F)(F)F [Silodosin]	0	
Cn1c(=O)cc(N2CCC[C@@H](N)C2)n(Cc2cc(F)ccc2C#N)c1=O [Trelagliptin]		0
C#C[C@]1(O)CC[C@H]2[C@@H]3CCC4=CC(=O)CC[C@@H]4[C@H]3C(=C)C[C@@]21CC [Etonogestrel]	0	
COc1cc2ncnc(Nc3ccc(F)c(Cl)c3)c2cc1NC(=O)/C=C/CN1CCCCC1 [Dacomitinib (PF299804, PF299)]	3.46	
Fc1ccc([C@@H]2CCNC[C@H]2COc2ccc3c(c2)OCO3)cc1 [Paroxetine HCl]		28.69
Cc1[nH]c(=O)c(C#N)cc1-c1ccc2nccn2c1 [Olprinone]	0	
CCn1cc(C(=O)O)c(=O)c2cc(F)c(N3CCNCC3)nc21 [Enoxacin Sesquihydrate]		0
C[C@H](N)[C@H](O)c1cccc(O)c1 [Metaraminol Bitartrate]	8.05	
CCC1(C)CC(=O)NC(=O)C1 [Bemegride]	0	
Cc1ccc(N(CC2=NCCN2)c2cccc(O)c2)cc1 [Phentolamine Mesylate]	0	
CO[C@@H]1[C@@H](OC(N)=O)[C@@H](O)[C@H](Oc2ccc3c(O)c(NC(=O)c4ccc(O)c(CC=C(C)C)c4)c(=O)oc3c2C)OC1(C)C [Novobiocin Sodium]	0	
NC(=O)c1cccc2cn(-c3ccc([C@@H]4CCCNC4)cc3)nc12 [Niraparib (MK-4827) tosylate]		14.33
COc1cc(Nc2c(C#N)cnc3cc(OCCCN4CCN(C)CC4)c(OC)cc23)c(Cl)cc1Cl [Bosutinib (SKI-606)]	55.6	
CCCCCCNC(=O)n1cc(F)c(=O)[nH]c1=O [Carmofur]		16.37
NC[C@@H]1O[C@H](O[C@H]2[C@@H](O)[C@H](O[C@@H]3[C@@H](O)[C@H](N)C[C@H](N)[C@H]3O[C@H]3O[C@H](CO)[C@@H](O)[C@H](O)[C@H]3N)O[C@@H]2CO)[C@H](N)[C@@H](O)[C@@H]1O [Paromomycin Sulfate]	0.814	
NCCC(O)(P(=O)(O)O)P(=O)(O)O [Pamidronate Disodium]	0.654	
Oc1ccc(O)cc1 [Hydroquinone]	7.86	
COc1ccc2[nH]c([S@@+]([O-])Cc3ncc(C)c(OC)c3C)nc2c1 [NEXIUM (esomeprazole magnesium)]		21.09
O=C(O[C@H]1C[C@H]2CC[C@@H](C1)[N+]21CCCC1)C(O)(c1ccccc1)c1ccccc1 [Trospium chloride]	14.5	
Nc1ccn([C@@H]2O[C@H](CO)[C@@H](O)[C@@H]2O)c(=O)n1 [Cytarabine]	0	
COc1ccc2c(c1)[C@]13CCCC[C@@H]1[C@H](C2)N(C)CC3 [Dextromethorphan hydrobromide hydrate]	8.58	
COCC[n+]1c2c(n(Cc3cnccn3)c1C)C(=O)c1ccccc1C2=O [YM155 (Sepantronium Bromide)]	0	

Compound	inhibition at 100 µM [%]	%inhibition [%]
COc1c(N2CCNC(C)C2)c(F)cc2c(=O)c(C(=O)O)cn(C3CC3)c12 (stereo not drawn) [Gatifloxacin]	1.88	
COc1cc(OC)c(/C=C/S(=O)(=O)Cc2ccc(OC)c(NCC(=O)O)c2)c(OC)c1 [Rigosertib (ON-01910)]	0.0877	
CC(=O)O[C@H]1CC[C@@]2(C)C(=CC[C@@H]3[C@@H]2CC[C@]2(C)C(=O)CC[C@@H]32)C1 [Dehydroepiandrosterone acetate]	15.8	
CC(O)Cn1cnc2c1c(=O)n(C)c(=O)n2C (stereo not drawn) [Proxyphylline]	1.62	
CO[C@H]1/C=C/O[C@@]2(C)Oc3c(C)c(O)c4c(c3C2=O)C2=NC3(CCN(CC(C)C)CC3)NC2=C(NC(=O)/C(C)=C\C=C\[C@H](C)[C@H](O)[C@@H](C)[C@@H](O)[C@@H](C)[C@H](OC(C)=O)[C@@H]1C)C4=O [Rifabutin]	34.6	
CN[C@@H]1[C@H](O)[C@H](NC)[C@H]2O[C@@]3(O)C(=O)C[C@@H](C)O[C@H]3O[C@@H]2[C@H]1O [Spectinomycin 2HCl]	11.7	
O=C(CCCN1CC=C(n2c(=O)[nH]c3ccccc32)CC1)c1ccc(F)cc1 [Droperidol]	1.08	
CNS(=O)(=O)CCc1ccc2[nH]cc(C3CCN(C)CC3)c2c1 [Naratriptan HCl]	0	
CC1=C(/C=C/C(C)=C/C=C/C(C)=C/C(=O)O)C(C)(C)CCC1 [Tretinoin]	0	
CC1(C)S[C@@H]2[C@H](NC(=O)[C@H](N)c3ccc(O)cc3)C(=O)N2[C@H]1C(=O)O [Amoxicillin Sodium]		14.1
C/C(=C\C(=O)OCCCCCCCCC(=O)O)C[C@@H]1OC[C@H](C[C@@H]2O[C@H]2[C@@H](C)[C@H](C)O)[C@@H](O)[C@H]1O [Mupirocin]		0
CC(=O)OCC(=O)[C@@]1(O)CC[C@H]2[C@@H]3CCC4=CC(=O)CC[C@]4(C)[C@H]3C(=O)C[C@@]21C [Cortisone acetate]	10.7	
O=C1NC(=O)C(c2ccccc2)(c2ccccc2)N1 [Phenytoin]	14.7	
CC1(C)[C@@H](OC(=O)CCC(=O)O)CC[C@]2(C)[C@H]3C(=O)C=C4[C@@H]5C[C@@](C)(C(=O)O)CC[C@]5(C)CC[C@@]4(C)[C@]3(C)CC[C@@H]12 [Carbenoxolone Sodium]	4.8	
CC(C)c1nc(CN(C)C(=O)N[C@H](C(=O)N[C@@H](Cc2ccccc2)C[C@H](O)[C@H](Cc2ccccc2)NC(=O)OCc2cncs2)C(C)C)cs1 [Ritonavir]	0	
CCCN[C@H]1CCc2nc(N)sc2C1 [Pramipexole]		0
CN(C)CCc1c[nH]c2ccc(Cn3cncn3)cc12 [Rizatriptan Benzoate]	0	
C[C@H]1[C@@H](O)O[C@@H]2O[C@@]3(C)CC[C@H]4[C@H](C)CC[C@@H]1[C@@]24OO3 [Dihydroartemisinin (DHA)]	0	
CCOC(=O)OC(C)OC1=C(C(=O)Nc2ccccn2)N(C)S(=O)(=O)c2ccccc21 (stereo not drawn) [Ampiroxicam]	5.86	
COc1cccc2c1C(=O)c1c(O)c3c(c(O)c1C2=O)C[C@@](O)(C(C)=O)C[C@@H]3O[C@H]1C[C@H](N)[C@H](O)[C@H](C)O1 [Daunorubicin HCl]	30.2	
CC(=O)SCC(Cc1ccccc1)C(=O)NCC(=O)OCc1ccccc1 (stereo not drawn) [Racecadotril]	0	
CC(CN(C)C)CN1c2ccccc2CCc2ccccc21 (stereo not drawn) [Trimipramine Maleate]	0	
O=S(=O)(O)Oc1ccc(C(c2ccc(OS(=O)(=O)O)cc2)c2ccccn2)cc1 [Sodium Picosulfate]	1.51	
